Measurements published in patent US10993957B2 (NuCana plc, priority 2011, dated 2021).
Like-named read-outs stand apart in the source and are kept apart here.

How the values were obtained:
[1] = system: L1210/0; test: Cytostatic assay, L1210/0 cells; format: cell-based, murine
Excerpt: (§1) The cell lines employed were L1210/0 (a leukemia cell line), FM3A/0 (a breast cancer cell line), Cem/0 (an acute lymphoblastic leukemia cell line) and HeLa (a cervical cell line).

[2] = system: Cem/TK^−; test: Cytostatic assay, thymidine kinase-deficient CEM/TK^− cells; format: cell-based, human; settings: for CC50: read-out: CC50 Cem/TK^−; for IC50: read-out: IC50 Cem/TK^−
[3] = system: HeLa; test: Cytostatic assay, HeLa cells; format: cell-based; settings: for CC50: read-out: CC50 HeLa; for IC50: read-out: IC50 HeLa
Excerpt: as §1

[4] = system: L1210/TK^−; test: Cytostatic assay, thymidine kinase-deficient L1210/TK^− cells; format: cell-based, murine
[5] = system: L1210.Hyor; test: Cytostatic assay, Mycoplasma hyorhinis-infected L1210 cells; settings: for % Retention: CC50 L1210 × 100 ÷ CC50 L1210/Hyor; for CC50: L1210, read-out: CC50 L1210/Hyor
Excerpt: Murine leukaemia L1210/0 and human T-lymphocyte CEM/0 cells were obtained from the American Type Culture Collection (ATCC) (Rockville, Md.). Human glioblastoma U87 cells were kindly provided by Dr. E. Menue (Institut Pasteur, Paris, France). […] S. Eriksson (currently at Uppsala University, Uppsala, Sweden) and Prof A. Karlsson (Karolinska Institute, Stockholm, Sweden). […] All cells were maintained in Dulbecco's modified Eagle's medium (DMEM) (Invitrogen, Carlsbad, Calif.) with 10% foetal bovine serum (FBS) (Biochrom AG, Berlin, Germany), 10 mM Hepes and 1 mM Sodium Pyruvate (Invitrogen). Cells were grown at 37° C. in a humidified incubator with a gas phase of 5% CO2.
Monolayer cells (U87 and U87.Hyor) were seeded in 48-well microtiter plates (Nunc™, Roskilde, Denmark) at 10,000 cells/well. After 24 hours, an equal volume of fresh medium containing the test compounds was added. On day 5, cells were trypsinized and counted in a Coulter counter (Analis, Suarlée, Belgium). Suspension cells (L1210/0, L1210/TK^−, L1210.Hyor, CEM/0, CEM/TK^−) were seeded in 96-well microtiter plates (Nunc™) at 60,000 cells/well in the presence of a given amount of the test compounds. The cells were allowed to proliferate for 48 h (L1210) or 72 hours (CEM) and were then counted in a Coulter counter.
Samples were also assayed for their % retention of activity in mycoplasma infected cells.
The L1210/0 cell cultures were infected with the mycoplasma species M. hyorhinis (cells designated: L1210.Hyor).

[6] = system: HeLa/TK^−; test: Cytostatic assay, HeLa/TK^− cells; format: cell-based; settings: for CC50: read-out: CC50 HeLa/TK^−; for IC50: read-out: IC50 HeLa/TK^−
Excerpt: as §1

[7] = system: Cem/0; test: Cytostatic assay, CEM/0 cells; format: cell-based, human; settings: for CC50: read-out: CC50 Cem/0; for IC50: read-out: IC50 Cem/0
Excerpt: as §1

[8] = Mus musculus, L1210/0, Table 1, read-out: CC50 L1210/0
[9] = Mus musculus, L1210/0, Table 2, mycoplasma negative cells, read-out: CC50 L1210
[10] = Mus musculus, L1210/0, Table 6, read-out: IC50 L1210/0
[11] = Mus musculus, L1210/0, Table 7, read-out: IC50 L1210/0
[12] = Homo sapiens, CEM-TK(-), Table 1
[13] = Homo sapiens, CEM-TK(-), Table 6
[14] = Mus musculus, L1210, Table 1, read-out: CC50 L1210/TK^−
[15] = Mus musculus, L1210, Table 6, read-out: IC50 L1210/TK^−
[16] = Mus musculus, L1210, read-out: IC50 L1210.Hyor
[17] = Homo sapiens, CCRF-CEM, Table 1
[18] = Homo sapiens, CCRF-CEM, Table 6
[19] = Table 6, read-out: IC50 L1210/0
[20] = Table 7, read-out: IC50 L1210/0
[21] = Table 6, read-out: IC50 L1210/TK^−
[22] = read-out: IC50 L1210.Hyor, Table 7

Row | SMILES | CC50 [1, 8] | CC50 [1, 9] | IC50 [1, 10] | IC50 [1, 11] | CC50 [2, 12] | IC50 [2, 13] | CC50 ([3]; Homo sapiens, HeLa, Table 1) | IC50 ([3]; Homo sapiens, HeLa, Table 6) | CC50 [4, 14] | IC50 [4, 15] | % Retention [5] | CC50 ([5]; Mus musculus) | IC50 [5, 16] | IC50(L1210.Hyor)/IC50(L1210/0) ([5]; Table 7) | CC50 ([6]; Homo sapiens, HeLa, Table 1) | IC50 ([6]; Homo sapiens, HeLa, Table 6) | CC50 [7, 17] | IC50 [7, 18] | further results
1 | CCCCCOC(=O)[C@H](C)NP(=O)(OC[C@H]1O[C@@H](n2cc(F)c(=O)[nH]c2=O)CC1O)Oc1cccc2ccccc12 (stereo partly drawn) [CPF 581, 5-Fluoro-2′-deoxyuridine-5′-O-[1-naphthyl-(pentoxy-L-alaninyl)] phosphate] | 2.8 ± 1 nM | 3.7 nM | 2.8 ± 1 nM | 2.1 ± 0.07 nM | 280 ± 40 nM | 280 ± 40 nM | 29 ± 23 nM | 29 ± 23 nM | 130 ± 130 nM | 130 ± 130 nM | 22% | 17 nM | 6 ± 1.4 nM | 2.9 | 440 ± 350 nM | 440 ± 350 nM | 15 ± 6 nM | 15 ± 6 nM | –
2 | C[C@H](NP(=O)(OC[C@H]1O[C@@H](n2cc(F)c(=O)[nH]c2=O)CC1O)Oc1cccc2ccccc12)C(=O)OC1CCCC1 (stereo partly drawn) [CPF 582, 5-Fluoro-2′-deoxyuridine-5′-O-[1-naphthyl-(cyclopentoxy-L-alaninyl)]phosphate] | 31 ± 10 nM | 35 nM | 31 ± 10 nM | 16 ± 0.7 nM | 920 ± 7 nM | 920 ± 7 nM | 71 ± 36 nM | 71 ± 36 nM | 130 ± 20 nM | 130 ± 20 nM | 83% | 42 nM | 24 ± 5 nM | 1.5 | 2200 ± 1300 nM | 2200 ± 1300 nM | 35 ± 25 nM | 350 ± 25 nM | –
3 | O=C(OCc1ccccc1)C1CCCN1P(=O)(OC[C@H]1O[C@@H](n2cc(F)c(=O)[nH]c2=O)CC1O)Oc1ccccc1 (stereo partly drawn) [CPF 583, 5-Fluoro-2′-deoxyuridine-5′-O-[phenyl(benzoxy-L-prolinyl)] phosphate] | – | – | – | – | – | – | – | – | – | – | 3.3% | 11900 nM | 18000 ± 710 nM | 51 | – | – | – | – | CC50 ([1]; Mus musculus, L1210/0, read-out: CC50 L1210): 387 nM; CC50 ([1]; Mus musculus, L1210/0, read-out: CC50 L1210/0): 350 ± 70 nM; IC50 ([1]; Mus musculus, L1210/0, read-out: IC50 L1210/0, Table 6): 350 ± 70 nM; IC50 ([1]; Mus musculus, L1210/0, read-out: IC50 L1210/0, Table 7): 350 ± 22 nM; CC50 ([2]; Homo sapiens, CEM-TK(-)): 28000 ± 8000 nM; IC50 ([2]; Homo sapiens, CEM-TK(-)): 28000 ± 8000 nM; CC50 ([3]; Homo sapiens, HeLa): 1100 ± 400 nM; IC50 ([3]; Homo sapiens, HeLa): 1100 ± 400 nM; CC50 ([4]; Mus musculus, L1210, read-out: CC50 L1210/TK^−): 31000 ± 5000 nM; IC50 ([4]; Mus musculus, L1210, read-out: IC50 L1210/TK^−): 31000 ± 5000 nM; CC50 ([6]; Homo sapiens, HeLa): 20000 ± 11000 nM; IC50 ([6]; Homo sapiens, HeLa): 20000 ± 11000 nM; CC50 ([7]; Homo sapiens, CCRF-CEM): 980 ± 400 nM; IC50 ([7]; Homo sapiens, CCRF-CEM): 980 ± 400 nM
4 | C[C@H](NP(=O)(OC[C@H]1O[C@@H](n2cc(F)c(=O)[nH]c2=O)CC1O)Oc1cccc2ccccc12)C(=O)OCCC(C)(C)C (stereo partly drawn) [CPF 585, 5-Fluoro-2′-deoxyuridine-5′-O-[1-naphthyl(3,3-dimethyl-1-butoxy-L-alaninyl)] phosphate] | 16 ± 6 nM | 21 nM | 16 ± 6 nM | 12 ± 1.8 nM | 190 ± 40 nM | 190 ± 40 nM | 78 ± 18 nM | 78 ± 18 nM | 62 ± 9 nM | 62 ± 9 nM | 41% | 51 nM | 32 ± 8.8 nM | 2.7 | 1300 ± 900 nM | 1300 ± 900 nM | 53 ± 21 nM | 53 ± 21 nM | –
5 | CSCC[C@H](NP(=O)(OC[C@H]1O[C@@H](n2cc(F)c(=O)[nH]c2=O)CC1O)Oc1ccccc1)C(=O)OCc1ccccc1 (stereo partly drawn) [CPF 586, 5-Fluoro-2′-deoxyuridine-5′-O-[phenyl-(benzoxy-L-methioninyl)] phosphate] | 73 ± 35 nM | 100 nM | 73 ± 35 nM | 58 ± 35 nM | 25000 nM | 25000 nM | 150 ± 20 nM | 150 ± 20 nM | 4100 ± 1200 nM | 4100 ± 1200 nM | 11% | 870 nM | 760 ± 180 nM | 13 | 11000 ± 7000 nM | 11000 ± 7000 nM | 280 ± 30 nM | 280 ± 30 nM | –
6 | O=C(OCc1ccccc1)[C@H](Cc1ccccc1)NP(=O)(OC[C@H]1O[C@@H](n2cc(F)c(=O)[nH]c2=O)CC1O)Oc1cccc2ccccc12 (stereo partly drawn) [CPF 587, 5-Fluoro-2′-deoxyuridine-5′-O-[1-naphthyl-(benzoxy-L-phenylalaninyl)]phosphate] | 12 ± 7 nM | 22 nM | 12 ± 7 nM | 21 ± 6.1 nM | 7200 ± 100 nM | 7200 ± 100 nM | 160 ± 80 nM | 160 ± 80 nM | 5600 ± 1300 nM | 5600 ± 1300 nM | 0.5% | 4200 nM | 230 ± 78 nM | 11 | 6800 ± 1500 nM | 6800 ± 1500 nM | 100 ± 30 nM | 100 ± 30 nM | –
7 | C[C@H](NP(=O)(OC[C@H]1O[C@@H](n2cc(F)c(=O)[nH]c2=O)CC1O)Oc1cccc2ccccc12)C(=O)OCC(C)(C)C (stereo partly drawn) [CPF 588, 5-Fluoro-2′-deoxyuridine-5′-O-[1-naphthyl-(2,2-dimethylpropoxy-L-alaninyl)] phosphate] | 270 ± 110 nM | 237 nM | 270 ± 110 nM | 93 ± 33 nM | 6700 ± 1000 nM | 6700 ± 1000 nM | 700 ± 110 nM | 700 ± 110 nM | 1200 ± 700 nM | 1200 ± 700 nM | 61% | 390 nM | 180 ± 69 nM | 1.9 | 32000 ± 26000 nM | 32000 ± 26000 nM | 490 ± 50 nM | 490 ± 50 nM | –
8 | CCCCOC(=O)[C@H](C)NP(=O)(OC[C@H]1O[C@@H](n2cc(F)c(=O)[nH]c2=O)CC1O)Oc1cccc2ccccc12 (stereo partly drawn) [CPF 589, 5-Fluoro-2′-deoxyuridine-5′-O-[1-naphthyl-(butoxy-L-alaninyl)] phosphate] | 22 ± 4 nM | 20 nM | 22 ± 4 nM | 9.5 ± 2.1 nM | 840 ± 600 nM | 840 ± 600 nM | 120 ± 20 nM | 120 ± 20 nM | 110 ± 60 nM | 110 ± 60 nM | 32% | 63 nM | 21 ± 7.1 nM | 2.2 | 2700 ± 1500 nM | 2700 ± 1500 nM | 64 ± 7 nM | 64 ± 7 nM | –
9 | CC(C)CC(NP(=O)(OCC1OC(n2cc(F)c(=O)[nH]c2=O)CC1O)Oc1cccc2ccccc12)C(=O)OCc1ccccc1 (stereo not drawn) [Nap Bn Leu] | – | – | – | – | – | – | – | – | – | – | – | – | – | 1.7 | – | – | – | – | IC50 [1, 19]: 28 ± 4 nM; IC50 [1, 20]: 29 ± 2.1 nM; IC50 ([2]; Table 6): 30000 ± 6000 nM; IC50 ([3]; Table 6): 80 ± 22 nM; IC50 [4, 21]: 1500 ± 600 nM; IC50 [5, 22]: 48 ± 20 nM; IC50 ([6]; Table 6): 9400 ± 1400 nM; IC50 ([7]; Table 6): 130 nM
10 | CSCCC(NP(=O)(OCC1OC(n2cc(F)c(=O)[nH]c2=O)CC1O)Oc1cccc2ccccc12)C(=O)OCc1ccccc1 (stereo not drawn) [Nap Bn Met] | – | – | – | – | – | – | – | – | – | – | – | – | – | 3.7 | – | – | – | – | IC50 [1, 19]: 72 ± 1 nM; IC50 [1, 20]: 54 ± 13 nM; IC50 ([2]; Table 6): 11000 ± 1000 nM; IC50 ([3]; Table 6): 87 ± 17 nM; IC50 [4, 21]: 1900 ± 200 nM; IC50 [5, 22]: 200 ± 98 nM; IC50 ([6]; Table 6): 8300 nM; IC50 ([7]; Table 6): 190 ± 100 nM
